Source: US5238936A, “Trisubstituted triazines” (Adir et Compagnie, priority 1991, dated 1993)

Experiments:
[1] = system: line DC-3F/AD; assay: Flow cytometry: intracellular accumulation of adriamycin by cells of the line DC-3F/AD; format: cell-based, Chinese hamster; details: ADR 50 μM, 5 hours
From the text: Also measured was the effect of the compounds on the intracellular concentration of the cytotoxic agent. In effect, the known compounds for reversing MDR act by increasing the intracellular concentration of cytotoxic agent. This effect is the consequence of inhibiting the action of gP 170 which is responsible for the efflux of the drug.
By measuring that fluorescence, it is thus possible to obtain a relative measurement of the intracellular concentration of ADR.
The cells 500×10^3 per ml were exposed simultaneously to ADR at a fixed concentration (50 μM) and to the tested compounds at various concentrations. After 5 hours' incubation, the intracellular accumulation of ADR was evaluated by FCM. […] The analysis of each of the samples was carried out on a total of 10,000 cells at a rate of 1,000 cells per second.
The results were presented in the form of linear histograms of the intracellular ADR fluorescence.
Expression of the results: for each of the histograms the mean fluorescence per channel (MEAN) was determined by the information system of the apparatus. For all experiments:
a negative control (cells without ADR) fixed the autofluorescence threshold.
a positive control (cells with ADR) determined the MEAN value=MN1.
the "test" tubes (cells with ADR and with compound) were used to determine, for each of the compounds and at each of the concentrations, the MEAN values=MN2.
The results are expressed in the form of variations from the mean fluorescence obtained for each of the "test" tubes (MN2) in relation to the mean fluorescence obtained with the positive control (MNl): VAR-MEAN=MN2-MN1. The parameter expressed is thus the increase in ADR fluorescence in the presence of the tested compounds.

[2] = system: line DC-3F/AD; assay: Cytotoxicity (Microculture Tetrazolium Assay): reversal of resistance to actinomycin D, line DC-3F/AD; format: cell-based, Chinese hamster; details: 4 days
From the text: The pharmacological study of the compounds of the present invention consisted first of all in an evaluation in vitro carried out on resistant cells. The parameter measured is the cytotoxicity of the antitumour drug, quantified in the absence and in the presence of the reversing compound.
The cells are distributed on microplates and exposed to the cytotoxic compounds (actinomycin D for line DC-3F/AD and adriamycin for line KB-Al) at 9 concentrations (2 by 2 series dilutions). The compounds tested for their capacity to reverse MDR are added at the same time as the cytotoxic agent.
The cells are then incubated for 4 days. […] The results are expressed as a reversion factor (RF): PG,29 [formula]

SMILES	VAR-MEAN (increase in ADR fluorescence), line DC-3F/AD ([1]; 1.0 μM compound)	VAR-MEAN (increase in ADR fluorescence), line DC-3F/AD ([1]; 5.0 μM compound)	VAR-MEAN (increase in ADR fluorescence), line DC-3F/AD ([1]; 10 μM compound)	VAR-MEAN (increase in ADR fluorescence), line DC-3F/AD ([1]; […] compound)	Reversion factors (cytotoxicity) with the line DC-3F/AD ([2]; 1 μM compound)	Reversion factors (cytotoxicity) with the line DC-3F/AD ([2]; 5 μM compound)	Reversion factors (cytotoxicity) with the line DC-3F/AD ([2]; 0.5 μM compound)
C=CCNc1nc(NCC=C)nc(N2CCC(NCC3c4ccccc4CSc4ccccc43)CC2)n1 (racemic) [Example 26, 2,4-diallylamino-6-{4-[((R,S)-6,11-dihydro-dibenzo[b,e]thiepin-11-yl)methylamino]piperidin-1-yl}-1,3,5-triazine]	4.3	33.5	32.6	17.8	6.8	866.6	–
C=CCNc1nc(NCC=C)nc(N2CCC(NCC3c4ccccc4NC(=O)c4ccccc43)CC2)n1 (racemic) [Example 27, 2,4-diallylamino-6-{4-[((R,S)-6,11-dihydro-dibenzo[b,e]-6-oxoazepin-11-yl)methylamino]piperidin-1-yl}-1,3,5-triazine]	0.0	2.2	–	0.0	1.1	2.1	–
C=CCNc1nc(NCC=C)nc(N2CCC(NCC3c4ccccc4CS(=O)(=O)c4ccccc43)CC2)n1 (racemic) [Example 32, 2,4-diallylamino-6-{4-[((R,S)-6,11-dihydro-5,5-dioxo-dibenzo[b,e]thiepin-11-yl)methylamino]piperidin-1-yl}-1,3,5-triazine]	0.0	12.4	–	1.9	1.3	27.4	–
C=CCNc1nc(NCC=C)nc(N2CCN(C3c4ccccc4CCc4ccccc43)CC2)n1 [Example 1, 2,4-Diallylamino-6-{4-(10,11-dihydro-5H-dibenzo[a,d]cyclohepten-5-yl)piperazin-1-yl}-1,3,5-triazine]	8.4	16.0	19.3	4.9	27	309	–
C=CCNc1nc(NCC=C)nc(NCCN2CCN(C3c4ccccc4CCc4ccccc43)CC2)n1 [Example 2, 2,4-Diallylamino-6-{2-[4-(10,11-dihydro-5H-dibenzo[a,d]cyclohepten-5-yl)piperazin-1-yl]ethylamino}-1,3,5-triazine]	10.1	10.2	10.5	14.7	1	–	0.8
C=CCNc1nc(NCC=C)nc(N2CCC(NC3c4ccccc4CCc4ccccc43)CC2)n1 [Example 4, 2,4-diallylamino-6-[4-(10,11-dihydro-5H-dibenzo[a,d]cyclohepten-5-ylamino)piperidin-1-yl]-1,3,5-triazine]	16.2	25.5	28.1	21.8	66	755	21
C=CCNc1nc(NCC=C)nc(NCC(O)CN2CCN(C3c4ccccc4CCc4ccccc43)CC2)n1 (stereo not shown) [Example 6, 2,4-diallylamino-6-{3-[4-(10,11-dihydro-5H-dibenzo[a,d]cyclohepten-5-yl)piperazin-1-yl]-2-hydroxypropylamino}-1,3,5-triazine]	11.0	24.3	27.6	14.4	1.1	–	0.9
C=CCNc1nc(NCC=C)nc(NCC2CCN(C3c4ccccc4CCc4ccccc43)CC2)n1 [Example 7, 2,4-diallylamino-6-{[1-(10,11-dihydro-5H-dibenzo[a,d]cyclohepten-5-yl)piperidin-4-yl]methylamino}-1,3,5-triazine]	3.4	10.1	17.4	3.9	1.1	9.7	1.2
C=CCNc1nc(NCC=C)nc(NCC2CCN(CC3c4ccccc4CCc4ccccc43)CC2)n1 [Example 8, 2,4-diallylamino-6-{[1-[(10,11-dibenzo[a,d]cyclohepten-5-yl)methyl]piperidin-4-yl]methylamino}-1,3,5-triazine]	1.3	19.3	21.0	11.4	1.6	353	0.8
C=CCNc1nc(NCC=C)nc(N2CCC(NCC3c4ccccc4Oc4ccccc43)CC2)n1 [Example 9, 2,4-diallylamino-6-[4-(xanthen-9-ylmethylamino)-piperidin-1-yl]-1,3,5-triazine]	13.4	19.4	25.7	18.1	39	844	4.8
C=CCNc1nc(NCC=C)nc(N2CCC(NCC34CCC(c5ccccc53)c3ccccc34)CC2)n1 [Example 10, 2,4-diallylamino-6-{4-[(9,10-dihydro-9,10-ethanoanthracen-9-yl)methylamino]piperidin-1-yl}-1,3,5-triazine]	12.3	20.2	30.7	13.5	1.9	96	1
C=CCNc1nc(NCC=C)nc(NCCN2CCC(NC3c4ccccc4CCc4ccccc43)CC2)n1 [Example 12, 2,4-diallylamino-6-{2-[4-(10,11-dihydro-5H-dibenzo[a,d]cyclohepten-5-ylamino)piperidin-1-yl]ethylamino}-1,3,5-triazine]	5.4	10.4	18.3	10.3	0.9	64	0.9
